Molecular target: human dUTPase (Homo sapiens (Human), UniProt P33316)
Experiment: Human dUTPase inhibitory effect: production of [5-3H]dUMP from [5-3H]dUTP, measured by HPLC with flow scintillation
Type: biochemical
Conditions: [5-3H]dUMP production from [5-3H]dUTP, 37° C., 15 minutes
Method in brief: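 E. coli-expressed purified human dUTPase reacted with 1 μM dUTP stock containing [5-3H]dUTP in Tris pH 7.4, MgCl2, 2-mercaptoethanol and albumin, 15 min at 37° C; stopped by 1 min at 100° C. [5-3H]dUMP formed was separated by reversed-phase ion-pair HPLC and quantified by flow scintillation versus water control.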

Chain of human dUTPase (P33316 94-252): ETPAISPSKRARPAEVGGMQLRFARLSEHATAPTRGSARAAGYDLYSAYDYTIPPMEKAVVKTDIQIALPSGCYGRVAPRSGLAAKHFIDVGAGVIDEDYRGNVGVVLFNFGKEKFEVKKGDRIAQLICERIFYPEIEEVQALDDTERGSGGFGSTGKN

| Compound | IC50 [µM] |
| --- | --- |
| CC(C)(CCCOCn1ccc(=O)[nH]c1=O)NS(=O)(=O)c1cccc(OC(F)F)c1 [Example 145, 3-(difluoromethoxy)-N-(5-((2,4-dioxo-3,4-dihydropyrimidin-1(2H)-yl)methoxy)-2-methylpentan-2-yl)benzenesulfonamide] | 6.29 |
| CC(C)(CCCOCn1ccc(=O)[nH]c1=O)NS(=O)(=O)c1cccc(OC(=O)c2ccccc2)c1 [Example 146, 3-(N-(5-((2,4-dioxo-3,4-dihydropyrimidin-1(2H)-yl)methoxy)-2-methylpentan-2-yl)sulfamoyl)phenylbenzoate] | 8.68 |
| CN(C)c1cccc2c(S(=O)(=O)NC(C)(C)CCCOCn3ccc(=O)[nH]c3=O)cccc12 [Example 147, 5-(dimethylamino)-N-(5-((2,4-dioxo-3,4-dihydropyrimidin-1(2H)-yl)methoxy)-2-methylpentan-2-yl)naphthalene-1-sulfonamide] | 9.5 |
| CC(C)(CCCOCn1ccc(=O)[nH]c1=O)NS(=O)(=O)c1cccc(Cl)c1 [Example 148, 3-chloro-N-(5-((2,4-dioxo-3,4-dihydropyrimidin-1(2H)-yl)methoxy)-2-methylpentan-2-yl)benzenesulfonamide] | 2.77 |
| CC(C)(CCCOCn1ccc(=O)[nH]c1=O)NS(=O)(=O)c1cc(Br)c(Br)s1 [Example 149, 4,5-dibromo-N-(5-((2,4-dioxo-3,4-dihydropyrimidin-1(2H)-yl)methoxy)-2-methylpentan-2-yl)thiophene-2-sulfonamide] | 7.65 |
| CC(C)(CCCOCn1ccc(=O)[nH]c1=O)NS(=O)(=O)c1cccc(F)c1 [Example 150, N-(5-((2,4-dioxo-3,4-dihydropyrimidin-1(2H)-yl)methoxy)-2-methylpentan-2-yl)-3-fluorobenzenesulfonamide] | 5.67 |
| Cc1ccccc1S(=O)(=O)NC(C)(C)CCCOCn1ccc(=O)[nH]c1=O [Example 151, N-(5-((2,4-dioxo-3,4-dihydropyrimidin-1(2H)-yl)methoxy)-2-methylpentan-2-yl)-2-methylbenzenesulfonamide] | 5.7 |
| Cc1cccc(S(=O)(=O)NC(C)(C)CCCOCn2ccc(=O)[nH]c2=O)c1 [Example 154, N-(5-((2,4-dioxo-3,4-dihydropyrimidin-1(2H)-yl)methoxy)-2-methylpentan-2-yl)-3-methylbenzenesulfonamide] | 8.82 |
| CC(C)(CCCOCn1ccc(=O)[nH]c1=O)NS(=O)(=O)c1ccccc1Br [Example 156, 2-bromo-N-(5-((2,4-dioxo-3,4-dihydropyrimidin-1(2H)-yl)methoxy)-2-methylpentan-2-yl)benzenesulfonamide] | 8.94 |
| CC(C)(CCCOCn1ccc(=O)[nH]c1=O)NS(=O)(=O)c1ccccc1 [Example 158, N-(5-((2,4-dioxo-3,4-dihydropyrimidin-1(2H)-yl)methoxy)-2-methylpentan-2-yl)benzenesulfonamide] | 9.48 |
| CC(C)(CCCOCn1ccc(=O)[nH]c1=O)NS(=O)(=O)c1cccc(OCC2CC2)c1 [Example 159, 3-(cyclopropylmethoxy)-N-(5-((2,4-dioxo-3,4-dihydropyrimidin-1(2H)-yl)methoxy)-2-methylpentan-2-yl)benzenesulfonamide] | 0.26 |
| CC(C)(CCCOCn1ccc(=O)[nH]c1=O)NS(=O)(=O)c1cccc(OCC(F)F)c1 [Example 160, 3-(2,2-difluoroethoxy)-N-(5-((2,4-dioxo-3,4-dihydropyrimidin-1(2H)-yl)methoxy)-2-methylpentan-2-yl)benzenesulfonamide] | 0.14 |
| CC(C)(CCCOCn1ccc(=O)[nH]c1=O)NS(=O)(=O)c1cccc(OC2CCCC2)c1 [Example 161, 3-(cyclopentyloxy)-N-(5-((2,4-dioxo-3,4-dihydropyrimidin-1(2H)-yl)methoxy)-2-methylpentan-2-yl)benzenesulfonamide] | 0.24 |
| C/C=C\c1cccc(S(=O)(=O)NC(C)(C)CCCOCn2ccc(=O)[nH]c2=O)c1 [Example 162, (Z)—N-(5-((2,4-dioxo-3,4-dihydropyrimidin-1(2H)-yl)methoxy)-2-methylpentan-2-yl)-3-(prop-1-enyl)benzenesulfonamide] | 3.96 |
| CC(C)(NS(=O)(=O)c1ccccc1)c1ccc(Cn2ccc(=O)[nH]c2=O)cc1 [Example 176, N-(2-(4-((2,4-dioxo-3,4-dihydropyrimidin-1(2H)-yl)methyl)phenyl)propan-2-yl)benzenesulfonamide] | 2.69 |

Now from value to compound:

| IC50 [µM] | Compound |
| --- | --- |
| 6.02 | O=c1ccn(COCCCC2(NS(=O)(=O)c3ccccc3)CC2)c(=O)[nH]1 [Example 164, N-(1-(3-((2,4-dioxo-3,4-dihydropyrimidin-1(2H)-yl)methoxy)propyl)cyclopropyl)benzenesulfonamide] |
| 1.86 | COc1cccc(S(=O)(=O)NC2(CCCOCn3ccc(=O)[nH]c3=O)CC2)c1 [Example 165, N-(1-(3-((2,4-dioxo-3,4-dihydropyrimidin-1(2H)-yl)methoxy)propyl)cyclopropyl)-3-methoxybenzenesulfonamide] |
| 0.64 | O=c1ccn(COCCCCNS(=O)(=O)c2cccc(OCC3CC3)c2)c(=O)[nH]1 [Example 166, 3-(cyclopropylmethoxy)-N-(4-((2,4-dioxo-3,4-dihydropyrimidin-1(2H)-yl)methoxy)butyl)benzenesulfonamide] |
| 0.13 | O=c1ccn(COCCCC2(NS(=O)(=O)c3cccc(OCC4CC4)c3)CC2)c(=O)[nH]1 [Example 167, 3-(cyclopropylmethoxy)-N-(1-(3-((2,4-dioxo-3,4-dihydropyrimidin-1(2H)-yl)methoxy)propyl)cyclopropyl)benzenesulfonamide] |
| 2.57 | COc1cccc(S(=O)(=O)NC(C)(C)c2ccc(Cn3ccc(=O)[nH]c3=O)cc2)c1 [Example 177, N-(2-(4-((2,4-dioxo-3,4-dihydropyrimidin-1(2H)-yl)methyl)phenyl)propan-2-yl)-3-methoxybenzenesulfonamide] |
| 0.24 | CC(C)(NS(=O)(=O)c1cccc(OCC2CC2)c1)c1ccc(Cn2ccc(=O)[nH]c2=O)cc1 [Example 178, 3-(cyclopropanemethoxy)-N-(2-(4-((2,4-dioxo-3,4-dihydropyrimidin-1(2H)-yl)methyl)phenyl)propan-2-yl)benzenesulfonamide] |
| 0.11 | CC(C)(NS(=O)(=O)c1cccc(OCC2CC2)c1)c1ccc(Cn2ccc(=O)[nH]c2=O)nc1 [Example 179, 3-(cyclopropanemethoxy)-N-(2-(6-((2,4-dioxo-3,4-dihydropyrimidin-1(2H)-yl)methyl)pyridin-3-yl)propan-2-yl)benzenesulfonamide] |
